Measured values published in patent US7897643B2, “Biphenyl carboxylic acids and derivatives thereof” (Janssen Pharmaceutica N.V., priority 2007, dated 2011).
Read-outs that look alike come from different tables or passages of the source.

Columns and labels:
γ-secretase = molecular target: T1, γ-secretase (Homo sapiens, UniProt P49768); test: WTAPP cell assay Aβ42 (γ-secretase-modulating activity, SKNBE2 cells carrying APP 695 wild type); type: cell-based; settings: for EC50: SKNBE2 cells carrying APP 695 wild type
T1 construct: endogenous in cells; host or cells: SKNBE2 cells carrying APP 695 wild type
Description: Screening of the Compounds of the Invention for γ-Secretase-Modulating Activity
Screening was carried out using SKNBE2 cells carrying the APP 695-wild type, grown in DMEM/NUT-mix F12 (HAM) provided by Gibco (cat no. 31330-38) containing 5% Serum/Fe supplemented with 1% non-essential amino acids.
Cells were grown to near confluency.
The screening was performed using the assay as described in Citron et al (1997) Nature Medicine 3: 67.

Aβ42 = test: In vivo mouse Aβ42 lowering (brain Aβ42 ELISA); settings: oral dose 30 mg/kg, 4 hr time point
Excerpt: To determine whether acute administration of an Aβ42 lowering agent would reduce Aβ42 levels in vivo, non-transgenic rodents, e.g. mice or rats were used. Alternatively, two to three month old Tg2576 mice expressing APP695 containing the “Swedish” variant can be used or a transgenic mouse model developed by Dr. Fred Van Leuven (K. U. Leuven, Belgium) and co-workers, with neuron-specific expression of a clinical mutant of the human amyloid precursor protein [V717I] (Moechars et al., 1999 J. Biol. Chem. 274, 6483). Young transgenic mice have high levels of Aβ in the brain but no detectable Aβ deposition. At approximately 6-8 months of age , the transgenic mice start to display spontaneous, progressive accumulation of β-amyloid (Aβ) in the brain, eventually resulting in amyloid plaques within the subiculum, hippocampus and cortex. Animals treated with the Aβ42 lowering agent will be examined and compared to those untreated or treated with vehicle and brain levels of soluble Aβ42 and total Aβ would be quantitated by standard techniques, for example, using ELISA. Treatment periods may vary from hours to days and will be adjusted based on the results of the Aβ42 lowering once a time course of onset of effect can be established.
(§1) A typical protocol for measuring Aβ42 lowering in vivo is shown but it is only one of many variations that could be used to optimize the levels of detectable Aβ. For example, Aβ42 lowering compounds as free acids or sodium salts were formulated in 5% of solutol in water or 20% hydroxypropyl β cyclodextrin. The Aβ42 lowering agents are administered as a single oral dose or by any acceptable route of administration e.g., three to four hours before sacrifice, determined empirically, and analysis or alternatively could be given over a course of days and the animals sacrificed three to four hours after the final dose is given.
(§2) The mice are anaesthetized with a mixture of Ketalar (Ketamin), Rompun (Xylazin 2%) and Atropin (2:1:1) and flushed trans-cardially with physiological serum at 4° C. Blood is collected at sacrifice. The blood collection is performed via a heart puncture during anesthesia in EDTA treated collection tubes. Blood is centrifuged at 4000 g for 5 minutes at 4° C. and the plasma recovered and flash frozen for later analysis. The brain is removed from the cranium and hindbrain and forebrain are separated with a cut in the coronal/frontal plane. The cerebellum is removed and retained for quantitative analysis of test compound levels. The forebrain is divided evenly into left and right hemisphere by using a midline sagital cut.
Both hemispheres are immediately immersed in liquid nitrogen and stored at −70° C. until homogenization for biochemical assays. […]

[1] = Brain and plasma compound concentration in mouse after oral dose; type: in vivo; settings: 30 mg/kg, 30 mpk po
Description: as §1, §2
Oral dose 30 mg/kg at 4 hr Time Point

Cyclooxygenase-1 (Cox-1) = molecular target: T2, Cyclooxygenase-1 (Cox-1) (Ovis aries, UniProt P05979); test: Colorimetric Cox inhibitor screening assay (Cayman), Cox-1; type: biochemical
T2 construct: purchased Cayman Chemical Company 760111
T2 sequence (P05979 25-600): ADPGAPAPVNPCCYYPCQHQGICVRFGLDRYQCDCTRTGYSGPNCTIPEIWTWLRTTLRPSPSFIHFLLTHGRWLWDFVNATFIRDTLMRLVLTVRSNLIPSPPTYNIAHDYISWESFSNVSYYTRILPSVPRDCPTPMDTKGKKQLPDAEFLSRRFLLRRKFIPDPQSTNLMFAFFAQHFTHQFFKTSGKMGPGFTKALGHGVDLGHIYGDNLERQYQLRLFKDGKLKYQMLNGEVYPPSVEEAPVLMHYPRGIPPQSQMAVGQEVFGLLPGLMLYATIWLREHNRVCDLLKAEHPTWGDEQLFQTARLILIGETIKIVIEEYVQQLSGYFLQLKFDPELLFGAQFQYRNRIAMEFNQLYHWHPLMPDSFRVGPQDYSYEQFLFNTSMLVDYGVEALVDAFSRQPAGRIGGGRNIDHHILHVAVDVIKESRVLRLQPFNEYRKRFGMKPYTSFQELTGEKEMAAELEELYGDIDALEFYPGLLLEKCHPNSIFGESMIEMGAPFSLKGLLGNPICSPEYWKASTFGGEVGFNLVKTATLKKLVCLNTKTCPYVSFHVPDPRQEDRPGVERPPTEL
Description: (§3) Determination of the Effect of the Compounds According to the Invention on Cyclooxygenase-1 and Cyclooxygenase-2 (Cox-1, Cox-2)
(§4) Inhibition of Cox-1 and Cox-2 was determined using the Colorimetric Cox inhibitor screening assay provided by Cayman Chemical Company, Ann Arbor, Mich., USA. (Cat. No. 760111) according to manufacturer's instructions.

Cyclooxygenase-2 (Cox-2) = molecular target: T3, Cyclooxygenase-2 (Cox-2) (Ovis aries, UniProt P79208); test: Colorimetric Cox inhibitor screening assay (Cayman), Cox-2; type: biochemical
T3 construct: purchased Cayman Chemical Company 760111
T3 sequence (P79208 17-603): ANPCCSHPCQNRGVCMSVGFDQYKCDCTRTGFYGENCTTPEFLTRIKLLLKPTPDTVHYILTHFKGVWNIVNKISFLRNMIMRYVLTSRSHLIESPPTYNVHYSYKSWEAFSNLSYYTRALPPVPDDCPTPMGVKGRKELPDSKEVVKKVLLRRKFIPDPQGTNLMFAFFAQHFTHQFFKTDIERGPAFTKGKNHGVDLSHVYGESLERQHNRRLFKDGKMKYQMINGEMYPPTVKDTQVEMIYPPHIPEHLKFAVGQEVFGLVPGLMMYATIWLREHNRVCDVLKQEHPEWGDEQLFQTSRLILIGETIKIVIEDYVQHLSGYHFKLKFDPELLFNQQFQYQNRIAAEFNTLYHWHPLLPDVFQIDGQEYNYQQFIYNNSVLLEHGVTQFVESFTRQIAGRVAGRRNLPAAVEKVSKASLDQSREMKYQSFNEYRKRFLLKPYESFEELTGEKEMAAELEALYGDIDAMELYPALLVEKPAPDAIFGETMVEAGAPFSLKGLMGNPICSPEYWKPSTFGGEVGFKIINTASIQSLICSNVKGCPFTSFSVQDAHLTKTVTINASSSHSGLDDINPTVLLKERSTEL
Description: as §3, §4

[2] = brain, read-out: Brain concentration @ 30 mpk po (4 hr)
[3] = plasma, read-out: Plasma concentration @ 30 mpk po (4 hr)

EC50 (γ-secretase) [nM]	concentration at 4 h [1, 2] [µM]	concentration at 4 h [1, 3] [µM]	inhibition at 100 µM (Cyclooxygenase-1 (Cox-1)) [%]	inhibition at 100 µM (Cyclooxygenase-2 (Cox-2)) [%]	IC50 (γ-secretase; comparison compound, read-out: IC50 in the above WTAPP cell assay) [nM]	SMILES	In vivo mouse Aβ42 efficacy @ 30 mpk (4 hr) inhibition (Aβ42) [%]
316	5.1 ± 1.1	5.1 ± 2.8	–	–	–	CC(C)C[C@@H](C(=O)O)c1cc(OCc2ccc(F)cc2C(F)(F)F)cc(-c2ccc(C(F)(F)F)cc2)c1 [Compound 3, (R)-2-[5-(4-fluoro-2-trifluoromethyl-benzyloxy)-4′-trifluoromethyl-biphenyl-3-yl]-4-methyl-pentanoic acid]	25
190	6.5 ± 1.5	6.5 ± 6.3	–	–	–	CC(C)CC(C(=O)O)c1cc(OCc2cc(F)cc(F)c2)cc(-c2ccc(Cl)c(C(F)(F)F)c2)c1 (stereo not shown) [Compound 4, 2-[4′-Chloro-5-(3,5-difluoro-2-benzyloxy)-3′-trifluoromethyl-biphenyl-3-yl]-4-methyl-pentanoic acid]	42

The next lines start with the molecule.

SMILES	EC50 (γ-secretase) [nM]	concentration at 4 h [1, 2] [µM]	concentration at 4 h [1, 3] [µM]	inhibition at 100 µM (Cyclooxygenase-1 (Cox-1)) [%]	inhibition at 100 µM (Cyclooxygenase-2 (Cox-2)) [%]	IC50 (γ-secretase; comparison compound, read-out: IC50 in the above WTAPP cell assay) [nM]	In vivo mouse Aβ42 efficacy @ 30 mpk (4 hr) inhibition (Aβ42) [%]
CC(C)C[C@H](C(=O)O)c1cc(OCc2cc(F)cc(F)c2)cc(-c2ccc(C(F)(F)F)cc2)c1 [Compound 2, (S)-2-[5-(3,5-Difluoro-benzyloxy)-4′-trifluoromethyl-biphenyl-3-yl]-4-methyl-pentanoic acid]	1120	11.1 ± 2.8	11.1 ± 8.9	–	–	–	45
CC(C)C[C@@H](C(=O)O)c1cc(OCc2cc(F)cc(F)c2)cc(-c2ccc(C(F)(F)F)cc2)c1 [Compound 1, (R) 2-[5-(3,5-Difluoro-benzyloxy)-4′-trifluoromethyl-biphenyl-3-yl]-4-methyl-pentanoic acid]	525	6.9 ± 2.3	6.9 ± 12.2	< 50	< 50	–	50
CCC[C@H](C(=O)O)c1cc(OCc2ccccc2)cc(-c2ccc(C(F)(F)F)cc2)c1 [reference compound]	–	–	–	–	–	2500	–
